Measured values published in paper PMC11408249, “Non-invasive in vivo imaging of changes in Collagen III turnover in myocardial fibrosis” (npj Imaging, 2024).
No end group written: not given here.

Key:
COL3 = molecular target: T1, COL3 (Homo sapiens, UniProt P02461); settings: cited from earlier work
T1 sequence (P02461 154-1221 limits assumed): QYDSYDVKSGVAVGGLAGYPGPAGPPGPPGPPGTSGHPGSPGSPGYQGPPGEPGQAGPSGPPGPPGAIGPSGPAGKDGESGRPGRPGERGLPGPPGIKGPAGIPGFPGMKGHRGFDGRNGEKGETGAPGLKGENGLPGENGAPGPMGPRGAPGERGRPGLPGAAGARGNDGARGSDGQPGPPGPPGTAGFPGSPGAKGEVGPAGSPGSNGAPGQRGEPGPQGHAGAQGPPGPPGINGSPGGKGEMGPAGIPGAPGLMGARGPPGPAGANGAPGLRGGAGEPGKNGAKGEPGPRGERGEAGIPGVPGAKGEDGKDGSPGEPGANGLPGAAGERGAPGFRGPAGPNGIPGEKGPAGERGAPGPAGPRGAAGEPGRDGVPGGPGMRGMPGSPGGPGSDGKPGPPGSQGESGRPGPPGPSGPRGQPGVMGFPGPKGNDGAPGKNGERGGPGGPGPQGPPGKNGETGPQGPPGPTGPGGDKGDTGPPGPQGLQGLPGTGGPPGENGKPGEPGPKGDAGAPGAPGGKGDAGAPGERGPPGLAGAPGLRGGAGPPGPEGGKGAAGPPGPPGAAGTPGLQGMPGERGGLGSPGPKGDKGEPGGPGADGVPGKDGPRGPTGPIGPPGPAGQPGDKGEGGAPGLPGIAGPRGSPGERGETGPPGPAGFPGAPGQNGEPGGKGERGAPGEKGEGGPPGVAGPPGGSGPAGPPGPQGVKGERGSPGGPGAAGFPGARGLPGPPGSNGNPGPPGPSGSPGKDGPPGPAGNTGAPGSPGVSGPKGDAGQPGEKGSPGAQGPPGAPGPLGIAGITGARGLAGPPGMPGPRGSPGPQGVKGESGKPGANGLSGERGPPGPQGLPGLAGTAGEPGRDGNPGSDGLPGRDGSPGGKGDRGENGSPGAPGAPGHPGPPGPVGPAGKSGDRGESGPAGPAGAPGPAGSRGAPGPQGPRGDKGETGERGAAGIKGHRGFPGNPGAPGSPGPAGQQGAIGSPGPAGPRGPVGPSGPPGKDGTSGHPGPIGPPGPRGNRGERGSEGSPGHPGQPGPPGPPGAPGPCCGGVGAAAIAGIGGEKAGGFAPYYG
Excerpt: (§1) The two peptides, DARKSEVQK (Collagen Binding Probe 1, CBP1) and TEFPLRMRDWLKN (CBP2), were identified from reported protein-protein interaction studies between collagen and other proteins[41],[43]. […] The TEFPLRMRDWLKN peptide is part of the secreted protein acidic and rich cysteine (SPARC) that binds to fibrillary collagens. The binding interaction between SPARC and collagens regulates collagen fibrillogenesis ...

[1] = test system: COL3-induced platelet aggregation; settings: cited from earlier work
Excerpt: as §1

COL1 fibres = molecular target: T2, COL1 fibres (Mus musculus, UniProt P11087+Q01149); assay: Tissue co-localisation of fluorescent probe with COL1 fibres; parameters: species or system mice; settings: aortic tissue, murine model of vascular remodelling
T2 construct: from tissue; host or cells: sections of the remodelled aortic wall of ApoE-/- mice
T2 sequence (P11087 152-1207 limits assumed): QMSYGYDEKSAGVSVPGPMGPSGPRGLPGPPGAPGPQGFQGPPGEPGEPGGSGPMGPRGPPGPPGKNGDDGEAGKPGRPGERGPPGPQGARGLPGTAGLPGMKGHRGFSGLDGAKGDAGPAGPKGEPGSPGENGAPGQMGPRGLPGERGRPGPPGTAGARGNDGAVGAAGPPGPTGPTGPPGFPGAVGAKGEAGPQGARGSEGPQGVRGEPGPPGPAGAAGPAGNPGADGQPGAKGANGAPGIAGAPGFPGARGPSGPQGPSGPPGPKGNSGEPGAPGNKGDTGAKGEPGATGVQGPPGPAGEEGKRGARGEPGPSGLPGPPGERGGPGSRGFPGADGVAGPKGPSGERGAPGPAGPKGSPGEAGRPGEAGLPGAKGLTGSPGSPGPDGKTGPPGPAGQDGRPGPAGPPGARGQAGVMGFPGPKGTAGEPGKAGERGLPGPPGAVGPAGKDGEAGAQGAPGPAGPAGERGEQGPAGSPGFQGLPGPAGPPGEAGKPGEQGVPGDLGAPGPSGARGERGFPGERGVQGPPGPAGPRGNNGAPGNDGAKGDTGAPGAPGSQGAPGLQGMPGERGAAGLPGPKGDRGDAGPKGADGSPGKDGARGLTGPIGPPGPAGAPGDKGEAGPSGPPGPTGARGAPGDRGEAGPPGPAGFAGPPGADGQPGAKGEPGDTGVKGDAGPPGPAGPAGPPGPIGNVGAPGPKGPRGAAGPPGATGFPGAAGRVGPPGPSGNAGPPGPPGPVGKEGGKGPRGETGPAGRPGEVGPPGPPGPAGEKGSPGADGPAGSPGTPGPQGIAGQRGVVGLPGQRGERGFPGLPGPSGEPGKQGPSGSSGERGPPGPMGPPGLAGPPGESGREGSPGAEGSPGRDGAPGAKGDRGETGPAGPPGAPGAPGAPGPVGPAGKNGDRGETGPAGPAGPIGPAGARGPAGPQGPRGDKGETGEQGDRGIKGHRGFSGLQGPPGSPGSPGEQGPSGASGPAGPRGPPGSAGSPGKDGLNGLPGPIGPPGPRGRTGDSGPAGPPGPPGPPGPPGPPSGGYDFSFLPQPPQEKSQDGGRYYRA
T2 sequence (Q01149 86-1125 limits assumed): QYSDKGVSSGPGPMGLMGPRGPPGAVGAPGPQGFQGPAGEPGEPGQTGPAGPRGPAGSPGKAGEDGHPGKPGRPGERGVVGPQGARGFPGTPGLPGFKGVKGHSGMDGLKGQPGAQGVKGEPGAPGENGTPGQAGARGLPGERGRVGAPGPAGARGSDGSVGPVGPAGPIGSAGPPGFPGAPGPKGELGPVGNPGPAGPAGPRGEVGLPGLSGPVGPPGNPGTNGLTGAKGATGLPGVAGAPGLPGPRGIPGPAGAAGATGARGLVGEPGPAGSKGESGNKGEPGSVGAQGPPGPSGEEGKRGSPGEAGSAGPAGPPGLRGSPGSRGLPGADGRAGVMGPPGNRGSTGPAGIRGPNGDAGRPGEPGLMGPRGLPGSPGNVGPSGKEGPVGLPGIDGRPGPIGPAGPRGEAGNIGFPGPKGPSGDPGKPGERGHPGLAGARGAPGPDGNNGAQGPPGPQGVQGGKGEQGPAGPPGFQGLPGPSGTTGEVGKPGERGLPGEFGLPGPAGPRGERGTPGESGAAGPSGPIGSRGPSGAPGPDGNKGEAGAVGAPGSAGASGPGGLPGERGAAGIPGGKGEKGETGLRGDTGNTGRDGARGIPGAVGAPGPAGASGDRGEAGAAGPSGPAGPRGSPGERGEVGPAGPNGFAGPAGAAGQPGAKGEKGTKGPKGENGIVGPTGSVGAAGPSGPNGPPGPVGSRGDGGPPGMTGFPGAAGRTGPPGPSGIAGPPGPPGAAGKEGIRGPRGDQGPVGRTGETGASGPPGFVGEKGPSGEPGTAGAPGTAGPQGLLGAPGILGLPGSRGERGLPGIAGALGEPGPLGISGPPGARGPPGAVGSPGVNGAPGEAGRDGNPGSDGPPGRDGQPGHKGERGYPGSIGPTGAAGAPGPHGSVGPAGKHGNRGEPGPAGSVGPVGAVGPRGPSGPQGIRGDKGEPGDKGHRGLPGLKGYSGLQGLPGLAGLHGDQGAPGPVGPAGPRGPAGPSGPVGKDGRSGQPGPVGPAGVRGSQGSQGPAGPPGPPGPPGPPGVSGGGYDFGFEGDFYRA
Excerpt: (§2) The monomeric molecular probes ending with a N-terminus free DOTAMA chelator and with a C-terminus free carboxylic group were custom synthesised by Peptide Synthetics Ltd (Hampshire, United Kingdom) with a purity of >95%. The DOTAMA collagen-binding peptides were complexed in house with Gd(III) to obtain a contrast agent for MR molecular imaging, or with Eu(III) for in vitro binding studies using Time-Resolved Fluorescence (TRF) plate assays, or ^68Ga(III) for PET biodistribution studies. Metal complexation of the DOTAMA derivatives was performed in-house, by reacting the desired lanthanide ion (Gd^3+, Eu^3+) in a 1.05:1 L:M molar ratio at pH 5.5 and room temperature. Reaction evolution was confirmed by xylenol orange method. Upon reaction competition, the pH was adjusted to 7 and the samples were lyophilised and stored at −20 °C. The final concentration of the Gd(III) and Eu(III) complex solutions was assessed by ICP-OES and/or BMS. For tissue co-localisation experiments, the CBP1 was also synthesised in the fluorescently labelled form by conjugating a Rhodamine B derivative to its N-terminus (compound Rh-CBP1).

COL3-rich fibres = molecular target: T3, COL3-rich fibres (Mus musculus, UniProt P08121); assay: Tissue co-localisation of fluorescent probe with COL3 fibres; parameters: species or system mice; settings: murine model of vascular remodelling
T3 construct: Signal enhancement seen on the MRI coincided with COL3 fibres detected by histology; from tissue; host or cells: remodelled abdominal aortic wall of male ApoE-/- mice, in vivo and in excised sections
T3 sequence (P08121 155-1219 limits assumed): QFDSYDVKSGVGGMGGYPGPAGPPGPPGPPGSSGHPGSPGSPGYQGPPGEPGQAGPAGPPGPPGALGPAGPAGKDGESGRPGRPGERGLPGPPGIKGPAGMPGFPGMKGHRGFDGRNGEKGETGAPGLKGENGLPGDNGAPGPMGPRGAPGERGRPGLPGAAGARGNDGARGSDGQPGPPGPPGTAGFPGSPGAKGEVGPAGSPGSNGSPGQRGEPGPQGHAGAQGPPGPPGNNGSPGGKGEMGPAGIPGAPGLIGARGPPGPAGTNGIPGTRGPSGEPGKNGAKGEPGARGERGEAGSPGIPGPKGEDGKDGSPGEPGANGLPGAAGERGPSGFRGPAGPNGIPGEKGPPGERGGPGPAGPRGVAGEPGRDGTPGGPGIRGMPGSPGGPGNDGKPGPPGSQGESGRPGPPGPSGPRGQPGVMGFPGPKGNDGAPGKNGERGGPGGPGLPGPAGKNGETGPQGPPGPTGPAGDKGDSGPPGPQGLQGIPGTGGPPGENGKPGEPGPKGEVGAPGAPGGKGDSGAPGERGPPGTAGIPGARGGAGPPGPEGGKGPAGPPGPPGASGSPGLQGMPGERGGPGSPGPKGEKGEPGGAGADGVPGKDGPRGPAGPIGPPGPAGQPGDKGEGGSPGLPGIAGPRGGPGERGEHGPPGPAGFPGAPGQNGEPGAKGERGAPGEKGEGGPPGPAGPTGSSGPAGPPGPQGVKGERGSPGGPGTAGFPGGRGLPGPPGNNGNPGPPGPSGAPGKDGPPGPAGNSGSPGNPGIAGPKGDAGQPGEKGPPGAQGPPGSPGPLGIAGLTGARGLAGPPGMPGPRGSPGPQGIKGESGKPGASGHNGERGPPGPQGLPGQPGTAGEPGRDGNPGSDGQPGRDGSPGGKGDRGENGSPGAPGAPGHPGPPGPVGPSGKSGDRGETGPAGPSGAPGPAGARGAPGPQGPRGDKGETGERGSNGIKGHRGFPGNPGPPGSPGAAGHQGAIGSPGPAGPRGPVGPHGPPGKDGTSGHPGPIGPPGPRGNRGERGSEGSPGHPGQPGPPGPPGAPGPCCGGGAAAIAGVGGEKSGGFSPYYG
Excerpt: as §2

Collagen type III (COL3) = molecular target: T4, Collagen type III (COL3) (Homo sapiens, UniProt P02461); assay: competition Eu(III) time-resolved fluorescence assay
T4 chain: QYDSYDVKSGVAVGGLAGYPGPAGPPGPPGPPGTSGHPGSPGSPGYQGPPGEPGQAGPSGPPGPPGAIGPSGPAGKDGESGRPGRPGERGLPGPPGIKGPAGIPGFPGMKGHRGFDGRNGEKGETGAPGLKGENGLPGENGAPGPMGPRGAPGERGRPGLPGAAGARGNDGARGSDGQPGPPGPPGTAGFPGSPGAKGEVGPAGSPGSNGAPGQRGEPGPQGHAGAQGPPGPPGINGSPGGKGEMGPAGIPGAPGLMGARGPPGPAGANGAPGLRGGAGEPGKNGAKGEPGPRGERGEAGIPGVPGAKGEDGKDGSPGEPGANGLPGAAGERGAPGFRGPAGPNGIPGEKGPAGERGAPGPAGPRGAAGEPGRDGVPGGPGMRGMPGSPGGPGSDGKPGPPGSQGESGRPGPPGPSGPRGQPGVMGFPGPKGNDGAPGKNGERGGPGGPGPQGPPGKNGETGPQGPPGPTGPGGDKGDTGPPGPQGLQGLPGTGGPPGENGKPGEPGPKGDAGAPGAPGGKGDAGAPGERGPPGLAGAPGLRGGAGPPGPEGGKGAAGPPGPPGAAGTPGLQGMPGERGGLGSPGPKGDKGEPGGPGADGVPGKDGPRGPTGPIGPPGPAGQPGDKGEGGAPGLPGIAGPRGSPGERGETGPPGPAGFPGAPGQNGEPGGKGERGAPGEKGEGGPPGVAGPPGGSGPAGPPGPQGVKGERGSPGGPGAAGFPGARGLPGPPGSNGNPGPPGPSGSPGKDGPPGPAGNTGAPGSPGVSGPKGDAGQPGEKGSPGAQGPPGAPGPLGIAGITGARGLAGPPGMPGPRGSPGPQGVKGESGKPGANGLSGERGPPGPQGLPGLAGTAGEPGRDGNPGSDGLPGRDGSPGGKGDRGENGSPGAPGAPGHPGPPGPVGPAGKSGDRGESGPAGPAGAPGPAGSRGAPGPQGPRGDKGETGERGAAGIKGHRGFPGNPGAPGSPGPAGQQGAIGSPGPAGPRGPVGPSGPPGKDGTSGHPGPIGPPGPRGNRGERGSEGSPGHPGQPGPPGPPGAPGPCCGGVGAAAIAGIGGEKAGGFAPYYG

DARKSEVQK [CBP1]
binding affinity towards COL3 compared with COL1 (in words) (COL3): higher binding affinity towards COL3 than COL1
effect on COL3-induced platelet aggregation (in words) [1]: inhibit

DARKSEVQK [rhodamine-labelled CBP1 analogue probe, CBP1 in fluorescently labelled form, Rhodamine B derivative conjugated to its N-terminus]
co-localisation to COL1 fibres (in words) (COL1 fibres): no co-localisation
co-localisation with COL3-rich fibres within the remodelled aortic wall (in words) (COL3-rich fibres): co-localisation of the fluorescent probe with COL3-rich fibres

Ac-C((Gd-DOTAMA)4 tri‑lysine scaffold)DARKSEVQK (not fully specified) [[Gd-DOTAMA]4-CBP1]
IC50 (Collagen type III (COL3)): 200 µM
